The values that follow come from paper PMC9112005, “Sas20 is a highly flexible starch-binding protein in the Ruminococcus bromii cell-surface amylosome” (The Journal of Biological Chemistry, 2022).

One assay deals with Sas20d2 W375A. Description: ITC binding to Sas20d2 W375A mutant. Details: species or system Ruminococcus bromii.
Another assay concerns Sas20d2 W329A. Description: ITC binding to Sas20d2 W329A mutant. Details: species or system Ruminococcus bromii.
In another assay the test system is Sas20d2 W440A. Description: ITC binding to Sas20d2 W440A mutant. Also on record: species or system Ruminococcus bromii.
The target of another assay is Sas20d2 W481A. Description: ITC binding to Sas20d2 W481A mutant. Also on record: species or system Ruminococcus bromii. To be noted: 25 °C, one-site binding model, average of three replicates.
In another assay the target is Sas20d1 (Ruminococcus bromii, UniProt Z9RYL2BLZ4). The assay can be described thus: ITC binding to Sas20d1. The note with it: average of three replicates; for Kd / Kd (μM): 25 °C, 50 mM Hepes pH 7.0, one-site binding model, polysaccharides: based on concentration of binding sites; for N (binding sites): one-site binding model.
The target in the next assay is Sas20d1tr (Ruminococcus bromii, UniProt Z9RYL2BLZ4). Description: ITC binding to truncated Sas20d1 lacking C-terminal helices.
A further assay concerns the target Sca5X25-2a. Description: ITC binding to Sca5X25-2a. To be noted: 25 °C, one-site binding model, average of three replicates.
Another assay addresses Sas20d1 W72A. The assay can be described thus: ITC binding to Sas20d1 W72A mutant. The note with it: 25 °C, one-site binding model, average of three replicates. Also on record: species or system Ruminococcus bromii.
A further assay has as its target Sas20d2 (Ruminococcus bromii, UniProt A0A2N0UW79). The assay can be described thus: ITC binding to Sas20d2. To be noted: for N (binding sites): one-site binding model.
In the next assay the target is Sca5X25-2 (Ruminococcus bromii, UniProt Z9P1N1M2Z2). Description: ITC binding to Sca5X25-2.
The target in a further assay is Sca5X25-2b. The assay can be described thus: ITC binding to Sca5X25-2b. To be noted: 25 °C, one-site binding model, average of three replicates.
Another assay addresses Sas20d1 Y60A. The assay can be described thus: ITC binding to Sas20d1 Y60A mutant. Also on record: species or system Ruminococcus bromii. To be noted: 25 °C, one-site binding model, average of three replicates.
Setting [1] is: 25 °C, one-site binding model, average of three replicates.
Setting [2] is: Kd (μM), 25 °C, one-site binding model, average of three replicates, asterisk denotes fixed Kd.
The mark [3] stands for this setting: 25 °C, 50 mM Hepes pH 7.0, one-site binding model, average of three replicates, polysaccharides: based on concentration of binding sites.

Values joined by “and” are separate entries in the source; they are usually repeats but may differ in a detail not shown here. Equal entries are not always repeated. “Also recorded” adds a separate entry of the source. Where two headings read alike, the source gives them in different places.

Sequence of Sas20d1tr (Z9RYL2BLZ4 14-173 limits assumed): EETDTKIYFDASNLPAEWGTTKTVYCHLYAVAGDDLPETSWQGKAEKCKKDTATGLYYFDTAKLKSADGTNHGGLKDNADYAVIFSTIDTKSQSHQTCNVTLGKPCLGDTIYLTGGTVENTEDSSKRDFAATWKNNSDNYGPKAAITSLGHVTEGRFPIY
Sequence of Sas20d1 (Z9RYL2BLZ4 14-251 limits assumed): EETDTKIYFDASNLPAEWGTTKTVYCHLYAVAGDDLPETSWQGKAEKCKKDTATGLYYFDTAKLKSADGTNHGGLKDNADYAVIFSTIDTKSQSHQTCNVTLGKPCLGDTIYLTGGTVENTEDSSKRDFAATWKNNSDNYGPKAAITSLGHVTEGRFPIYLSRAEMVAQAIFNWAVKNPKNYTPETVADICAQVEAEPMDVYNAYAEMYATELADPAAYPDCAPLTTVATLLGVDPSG
Sequence of Sca5X25-2 (Z9P1N1M2Z2 14-256 limits assumed): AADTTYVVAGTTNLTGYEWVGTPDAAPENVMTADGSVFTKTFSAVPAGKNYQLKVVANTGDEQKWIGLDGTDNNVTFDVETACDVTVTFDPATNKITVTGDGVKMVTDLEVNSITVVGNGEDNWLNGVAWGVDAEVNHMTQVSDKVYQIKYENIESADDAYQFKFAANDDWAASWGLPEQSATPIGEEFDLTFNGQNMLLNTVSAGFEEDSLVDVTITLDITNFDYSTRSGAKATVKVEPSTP
Sequence of Sas20d2 (A0A2N0UW79 entry or part of it): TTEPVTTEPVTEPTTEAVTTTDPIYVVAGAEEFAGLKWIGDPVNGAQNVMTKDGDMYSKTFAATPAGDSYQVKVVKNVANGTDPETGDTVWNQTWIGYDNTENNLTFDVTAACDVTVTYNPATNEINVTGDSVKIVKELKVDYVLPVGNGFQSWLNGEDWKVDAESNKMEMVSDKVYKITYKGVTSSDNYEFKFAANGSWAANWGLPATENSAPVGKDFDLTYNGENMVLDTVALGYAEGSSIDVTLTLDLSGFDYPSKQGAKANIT
Sequence of Sca5X25-2a (Z9P1N1M2Z2 13-117 limits assumed): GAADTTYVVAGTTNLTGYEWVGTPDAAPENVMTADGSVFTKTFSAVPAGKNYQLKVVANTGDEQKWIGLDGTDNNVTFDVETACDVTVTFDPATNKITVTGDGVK
Sequence of Sca5X25-2b (Z9P1N1M2Z2 118-256 limits assumed): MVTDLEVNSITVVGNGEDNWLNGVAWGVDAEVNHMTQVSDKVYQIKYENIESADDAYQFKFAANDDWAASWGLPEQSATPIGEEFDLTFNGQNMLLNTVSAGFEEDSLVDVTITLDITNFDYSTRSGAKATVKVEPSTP
Experimental for Sas20d1tr: (§1) ITC measurements were carried out using a TA Instruments Nano ITC. Proteins were dialyzed into 50 mM Hepes (pH = 7.0), and oligosaccharides were prepared using the dialysis buffer. […] For polysaccharide titrations, the concentration of ligand was adjusted to fit a one-site binding model with n = 1; this sets the concentration of the ligand to the concentration of binding sites for the protein within the polysaccharide, as previously described ([77]). The solution was stirred at 250 rpm, and the resulting heat of reaction was measured. Data were analyzed using the TA Instruments NanoAnalyze software package fitting to a one-site binding model.
Experimental for Sca5X25-2a: as §1
Experimental for Sca5X25-2b: ITC measurements were carried out using a TA Instruments Nano ITC. Proteins were dialyzed into 50 mM Hepes (pH = 7.0), and oligosaccharides were prepared using the dialysis buffer. […] The solution was stirred at 250 rpm, and the resulting heat of reaction was measured. Data were analyzed using the TA Instruments NanoAnalyze software package fitting to a one-site binding model.

A word on the Kd: it is the constant that tells how readily two partners part at equilibrium. As for `OC[C@H]1O[C@H](O[C@H]2[C@H](O)[C@@H](O)[C@@H](O[C@H]3[C@H](O)[C@@H](O)[C@@H](O[C@H]4[C@H](O)[C@@H](O)[C@@H](O[C@H]5[C@H](O)[C@@H](O)[C@@H](O[C@H]6[C@H](O)[C@@H](O)[C@@H](O[C@H]7[C@H](O)[C@@H](O)C(O)O[C@@H]7CO)O[C@@H]6CO)O[C@@H]5CO)O[C@@H]4CO)O[C@@H]3CO)O[C@@H]2CO)[C@H](O)[C@@H](O)[C@@H]1O` (some centres unmarked) [Maltoheptaose, maltoheptaose], the “fold increase in the Kd compared with WT Sas20d2” value with Sas20d2 W375A, in the assay on Sas20d2 W329A and with Sas20d2 W440A was around 100 fold each time. The Kd at Sas20d2 W375A (setting [1]) was 88.1 ± 36 µM; on Sas20d2 W329A (setting [1]), 90.8 ± 25.7 µM; on Sas20d2 W440A (setting [1]), 90 ± 7.72 µM; on Sas20d1 (Kd (μM)), ≤ 20 µM and 1.5 µM and 1.53 µM; at Sas20d1tr (setting [2]), 155 ± 63 µM; at Sca5X25-2, 0.21 ± 0.029 µM. Binding at Sas20d1 Y60A was characterised by a dissociation constant (Kd) of 8.29 ± 0.51 µM. Also, the “Kd (μM)” value at Sas20d2 W481A is listed as “eliminated binding”; at Sca5X25-2a, “failed to bind”; on Sas20d1 W72A, “did not bind”; at Sca5X25-2b, “failed to bind”; at Sas20d1 Y60A, “binds”. Moreover, the “N (binding sites)” value at Sas20d1 is on record as 0.89 ± 0.38; at Sas20d1tr (one-site binding model), 1.45 ± 0.27; on Sas20d2, 1.15 ± 0.15; at Sca5X25-2 (ITC, one-site binding model) it was 0.81 ± 0.09. For the same compound, the “fold decrease in binding versus full-length Sas20d1” value at Sas20d1tr is on record as around 100 fold. Further, the “fold lower Kd for maltoheptaose over maltotriose” value at Sas20d2 was around 1500 ×.
Turning to `O=[N+]([O-])c1ccc(OC2OC(CO)C(OC3OC(CO)C(OC4OC(CO)C(OC5OC(CO)C(OC6OC(CO)C(OC7OC(CO)C(OC8OC9COC(c%10ccccc%10)OC9C(O)C8O)C(O)C7O)C(O)C6O)C(O)C5O)C(O)C4O)C(O)C3O)C(O)C2O)cc1` (centres unmarked) [B-PNP-M7, benzylidene-blocked para-nitrophenyl maltoheptaoside], at Sas20d1, binding was put at a Kd of 7.12 ± 1.53 µM and the “N (binding sites)” value stood at 1.28 ± 0.29.
Taken in the same sequence, the figures for `O=[N+]([O-])c1ccc(O[C@H]2O[C@H](CO)[C@@H](O[C@H]3O[C@H](CO)[C@@H](O[C@H]4O[C@H](CO)[C@@H](O[C@H]5O[C@H](CO)[C@@H](O[C@H]6O[C@H](CO)[C@@H](OC7OC(CO)C(O)C(O)C7O)[C@H](O)[C@H]6O)[C@H](O)[C@H]5O)[C@H](O)[C@H]4O)[C@H](O)[C@H]3O)[C@H](O)[C@H]2O)cc1` (stereo partly drawn) [PNP-M6, PNP-α-maltohexaose] were 0.87 ± 0.48 µM and 1.15 ± 0.07.
As for soluble starch, the Kd on Sas20d1 and on Sas20d2 (setting [3]) was at most 20 µM throughout.
With `OC[C@H]1O[C@H](O[C@H]2[C@H](O)[C@@H](O)[C@@H](O[C@H]3[C@H](O)[C@@H](O)C(O)O[C@@H]3CO)O[C@@H]2CO)[C@H](O)[C@@H](O)[C@@H]1O` (some centres unmarked) [Maltotriose, maltotriose], the “Kd (μM)” value on Sas20d2 W375A (setting [1]) is on record as “loss of binding”; on Sas20d2 W329A (setting [1]), “loss of binding”; on Sas20d2 W440A (setting [1]), “loss of binding”; at Sas20d2 W481A, “eliminated binding”; on Sas20d1 W72A, “did not bind”. For the same compound, the “N (binding sites)” value at Sas20d2 was found to be 1.18 ± 0.05.
With `OC[C@H]1O[C@@H]2O[C@H]3[C@H](O)[C@@H](O)[C@@H](O[C@H]4[C@H](O)[C@@H](O)[C@@H](O[C@H]5[C@H](O)[C@@H](O)[C@@H](O[C@H]6[C@H](O)[C@@H](O)[C@@H](O[C@H]7[C@H](O)[C@@H](O)[C@@H](O[C@H]8[C@H](O)[C@@H](O)[C@@H](O[C@H]1[C@H](O)[C@H]2O)O[C@@H]8CO)O[C@@H]7CO)O[C@@H]6CO)O[C@@H]5CO)O[C@@H]4CO)O[C@@H]3CO` [β-Cyclodextrin, β-cyclodextrin], the “Kd (μM)” value on Sas20d1 was “failed to bind”; at Sas20d2 (setting [3]) it was “weak binding”. Moreover, the Kd is above 1000 µM on Sas20d1tr (Kd), 1050 ± 168 µM at Sas20d1tr (setting [2]) and 346 ± 78.8 µM on Sca5X25-2. Also, the “N (binding sites)” value on Sas20d2 stood at 0.98 ± 0.09; at Sca5X25-2 (ITC, one-site binding model), 0.958 ± 0.01.
For `OC[C@H]1O[C@@H]2O[C@H]3[C@H](O)[C@@H](O)[C@@H](O[C@H]4[C@H](O)[C@@H](O)[C@@H](O[C@H]5[C@H](O)[C@@H](O)[C@@H](O[C@H]6[C@H](O)[C@@H](O)[C@@H](O[C@H]7[C@H](O)[C@@H](O)[C@@H](O[C@H]1[C@H](O)[C@H]2O)O[C@@H]7CO)O[C@@H]6CO)O[C@@H]5CO)O[C@@H]4CO)O[C@@H]3CO` [α-Cyclodextrin, α-cyclodextrin], the “Kd (μM)” value was “failed to bind” on Sas20d1; “Neither Sas20d2 nor Sca5X25-2 bound; also recorded: failed to bind” at Sas20d2 (setting [3]); “Neither Sas20d2 nor Sca5X25-2 bound” on Sca5X25-2 (ITC, 25 °C, one-site binding model, average of three replicates). This compound had a Kd on Sas20d1tr above 1000 µM.
